Laboratory results reported in article PMC4424558, “Antimicrobial and antioxidant flavonoids from the leaves of Oncoba spinosa Forssk. (Salicaceae)” (BMC Complementary and Alternative Medicine, 2015).
Values after ≈ are worked out from the molar mass of the structure shown.

Assays:
[1] = tested on: Enterobacter aerogenes ATCC13048; assay: Broth microdilution MIC/MBC against Enterobacter aerogenes ATCC13048; assay type: cell-based; details: for MBC / MIC: Klebsiella aerogenes; for MIC: 37°C, 24 h
Experimental: (§1) The studied microorganisms were both reference (from the American Type Culture Collection) and clinical (from Pasteur Institute Paris, France) strains of Enterobacter aerogenes, Escherichia coli, Klebsiella pneumoniae, Candida albicans, and Cryptococcus neoformans. Also, included were two clinical isolates of Candida parapsilosis and Staphylococcus aureus collected from Pasteur Centre (Yaoundé-Cameroon). The bacterial and fungal species were grown at 37°C and maintained on nutrient agar (NA, Conda, Madrid, Spain) and Sabouraud Dextrose Agar (SDA, Conda) slants respectively.
(§2) The inocula of yeasts and bacteria were prepared from overnight cultures by picking numerous colonies and suspending them in sterile saline (NaCl) solution (0.90%). Absorbance was read at 530 nm for yeasts or at 600 nm for bacteria and adjusted with the saline solution to match that of a 0.50 McFarland standard solution. From the prepared microbial solutions, other dilutions with saline solution were prepared to give a final concentration of 10^6 yeast cells/ml and 10^6 CFU/ml for bacteria.
(§3) The antimicrobial activity was investigated by determining the minimum inhibitory concentrations (MICs), minimum bactericidal concentrations (MBCs) and minimum fungicidal concentrations (MFCs).
(§4) MICs were determined by broth micro dilution. Stock solutions of the tested samples were prepared in 10% v/v aqueous dimethylsulfoxide (DMSO) solution (Fisher chemicals, Strasbourg, France) at concentration of 4096 μg/ml. This was two-fold serially diluted in Mueller-Hinton Broth (MHB) for bacteria and Sabouraud Dextrose Broth (SDB) for fungi to obtain a concentration range of 2048 to 0.25 μg/ml. For every experiment, a sterility check (10% aqueous DMSO and medium), negative control (10% aqueous DMSO, medium and inoculum) and positive control (10% aqueous DMSO, medium, inoculum and water-soluble antibiotics) were included. One hundred microliters of each concentration was introduced into a well (96-wells microplate) containing 90 μl of SDB or MHB and 10 μl of inoculum was added to obtain a final concentration range of 4096 to 0.125 μg/ml. The plates were covered with a sterile lid, and incubated on the shaker at 37°C for 24 h (bacteria) and 48 h (yeasts). MICs were assessed visually after the corresponding incubation period and were taken as the lowest sample concentration at which there was no growth or virtually no growth. The assay was repeated thrice.
(§5) The lowest concentration that yielded no growth after the sub-culturing was taken as the MBCs or MFCs. Chloramphenicol (Sigma-Aldrich, Steinheim, Germany) for bacteria and nystatin (Sigma-Aldrich, Steinheim, Germany) for yeasts were used as positive controls.

[2] = tested on: Escherichia coli ATCC8739; assay: Broth microdilution MIC/MBC against Escherichia coli ATCC8739; assay type: cell-based; details: for MIC: 37°C, 24 h
Experimental: as §1, §2, §3, §4, §5

[3] = tested on: Klebsiella pneumoniae ATCC11296; assay: Broth microdilution MIC/MBC against Klebsiella pneumoniae ATCC11296; assay type: cell-based; details: for MIC: 37°C, 24 h
Experimental: as §1, §2, §3, §4, §5

[4] = tested on: Staphylococcus aureus; assay: Broth microdilution MIC/MBC against Staphylococcus aureus; assay type: cell-based; details: Staphylococcus aureus clinical isolate; for MIC: 37°C, 24 h
Experimental: as §1, §2, §3, §4, §5

[5] = tested on: Candida parapsilosis; assay: Broth microdilution MIC/MFC against Candida parapsilosis; assay type: cell-based; details: Candida parapsilosis clinical isolate; for MIC / MFC: Lodderomyces parapsilosis; for MIC: 37°C, 48 h, read-out: MIC; for MFC: read-out: MFC
Experimental: as §1, §2, §3, §4, §5

[6] = tested on: Candida albicans ATCC 9002; assay: Broth microdilution MIC/MFC against Candida albicans ATCC 9002; assay type: cell-based; details: for MIC: ATCC9002, 37°C, 48 h, read-out: MIC; for MFC: ATCC9002, read-out: MFC
Experimental: as §1, §2, §3, §4, §5

[7] = tested on: Cryptococcus neoformans IP 90526; assay: Broth microdilution MIC/MFC against Cryptococcus neoformans IP 90526; assay type: cell-based; details: for MIC: IP90526, 37°C, 48 h, read-out: MIC; for MFC: IP90526, read-out: MFC
Experimental: as §1, §2, §3, §4, §5

[8] = tested on: fungi; assay: Broth microdilution, fungal strains (panel summary); assay type: cell-based; details: range over the fungal strains
Experimental: as §1, §2, §3
as §4, with “One hundred microliters of each concentration was introduced into a well (96-wells microplate) containing 90 μl of SDB or MHB and 10 μl of inoculum was added to obtain a final concentration range of 4096 to 0.125 μg/ml. The plates were covered with a sterile lid, and incubated on the shaker at 37°C for 24 h (bacteria) and 48 h (yeasts).” left out, “The assay was repeated thrice.” left out

[9] = tested on: bacterial and fungal species; assay: Broth microdilution, all studied microorganisms (panel summary); assay type: cell-based; details: for studied microorganisms on which inhibitory effects were noted: out of 7 studied microorganisms
Experimental: as §1, §2, §3, §4, §5

[10] = DPPH free radical scavenging assay; assay type: biochemical; details: 30 min, room temperature, 517 nm
Experimental: The free radical scavenging activity of the MeOH extract as well as some of its isolated compounds was evaluated according to described methods with slight modifications. Briefly, the test samples, prior dissolved in DMSO (SIGMA) beforehand, were mixed with a 20 mg/l 2,2-diphenyl-1-picryl-hydrazyl (DPPH) methanol solution, to give final concentrations of 10, 50, 100, 500 and 1000 μg/ml. After 30 min at room temperature, the absorbance values were measured at 517 nm and converted into percentage of antioxidant activity. L-ascorbic acid was used as a standard control. The percentage of decolouration of DPPH (%) was calculated as follows: %decolourationofDPPH=Absorbanceofcontrol−Absorbanceoftestsample)×100/Absorbanceofcontrol
The percentage of decolouration of DPPH (%) was plotted against the test sample. Also, the percentage of decolouration of DPPH was converted in probits. The probit values were plotted against the logarithmic values of concentrations of the test samples and a linear regression curve was established in order to calculate the EC50 (μg/ml), which is the amount of sample necessary to decrease by 50% the absorbance of DPPH [11]. All the analyses were carried out in triplicate.

[11] = Trolox equivalent antioxidant capacity (TEAC) assay; assay type: biochemical; details: ABTS/laccase, 420 nm, 230 s; 20 μg/ml isolated compounds, 10-400 μg/ml MeOH extract; gallic acid equivalents
Experimental: The TEAC test was done as previously described with slight modifications. In a quartz cuvette, to 950 μl acetate buffer (pH = 5.0, 100 mM), the following were added: 20 μl laccase (1 mM stock solution), 20 μl test sample, 10 μl ABTS (2,2′-azinobis(3-ethylbenzothiazoline-6-sulfonic acid)) (74 mM stock solution). The laccase were purified from Sclerotinia sclerotiorum according to the protocol described. The sample concentrations in the assay mixture were 400, 200, 100, 10 μg/ml for the MeOH extract and 20 μg/ml for the isolated compounds. The content of the generated ABTS^●+ radical was measured at 420 nm after 230 s reaction time and was converted to gallic acid equivalents by the use of a calibration curve (Pearson’s correlation coefficient: r = 0.998) constructed with 0, 4, 10, 14, 28, 56, 84 μM gallic acid standards rather than Trolox. Experiments were done in triplicate.

MBC/MIC [1]	MIC [1] [µg/mL]	MBC/MIC [2]	MIC [2] [µg/mL]	MBC/MIC [3]	MIC [3] [µg/mL]	MIC [4] [µg/mL]	MFC/MIC [5]	MIC [5] [µg/mL]	MIC [6] [µg/mL]	MFC/MIC [7]	MIC [7] [µg/mL]	EC50, concentration scavenging 50% of DPPH radical [10] [µg/mL]	SMILES	MBC [1] [µg/mL]	MBC [2] [µg/mL]	MBC [3] [µg/mL]	MBC [4] [µg/mL]	MFC [5] [µg/mL]	MFC [7] [µg/mL]	studied microorganisms on which inhibitory effects were noted [9]	other results
1	64 (≈ 212 µM)	2	128 (≈ 424 µM)	1	64 (≈ 212 µM)	256 (≈ 847 µM)	1	64 (≈ 212 µM)	128 (≈ 424 µM)	1	64 (≈ 212 µM)	5.08	O=c1c(O)c(-c2ccc(O)c(O)c2)oc2cc(O)cc(O)c12 [Compound 2, quercetin]	64 (≈ 212 µM)	256 (≈ 847 µM)	64 (≈ 212 µM)	> 256	64 (≈ 212 µM)	64 (≈ 212 µM)	7/7	MFC/MIC [6]: 1; MFC [6]: 128 µg/mL (≈ 424 µM); MIC (range over fungi) [8]: 64 to 128 µg/mL; activity against all the microbial strains (in words) [9]: active against all the microbial strains; Gallic acid equivalent antioxidant capacity (TEAC) [11]: 89.86 µg/mL
1	128 (≈ 287 µM)		> 256	1	256 (≈ 574 µM)	> 256	2	64 (≈ 143 µM)	> 256	1	128 (≈ 287 µM)	29.16	O=C(O)[C@H]1O[C@@H](Oc2cc(O)c3c(=O)cc(-c4ccc(O)cc4)oc3c2)[C@H](O)[C@@H](O)[C@@H]1O [Compound 3, apigenin-7-O-β-D-glucuronopyranoside]	128 (≈ 287 µM)		256 (≈ 574 µM)		128 (≈ 287 µM)	128 (≈ 287 µM)	4/7	
2	32 (≈ 68.9 µM)	1	128 (≈ 276 µM)	2	32 (≈ 68.9 µM)	128 (≈ 276 µM)	2	128 (≈ 276 µM)	256 (≈ 551 µM)	1	128 (≈ 276 µM)	13.44	O=c1c(O[C@@H]2O[C@H](CO)[C@H](O)[C@H](O)[C@H]2O)c(-c2ccc(O)c(O)c2)oc2cc(O)cc(O)c12 [Compound 4, quercetin 3-O-β-D-galactopyranoside]	64 (≈ 138 µM)	128 (≈ 276 µM)	64 (≈ 138 µM)	128 (≈ 276 µM)	256 (≈ 551 µM)	128 (≈ 276 µM)	7/7	MBC/MIC [4]: 1; MFC/MIC [6]: 1; MFC [6]: 256 µg/mL (≈ 551 µM); activity against all the microbial strains (in words) [9]: active against all the microbial strains; Gallic acid equivalent antioxidant capacity (TEAC) [11]: 72.95 µg/mL
